{"source": "patent US9656953B2", "about": "“Inhibition of cell proliferation” (University of South Florida, priority 2005, dated 2017)", "key": {"[1]": {"test_system": "A549 tumors", "test": "A549 xenograft in nude mice", "type": "in vivo", "conditions": "for tumor size, A549 xenograft: vehicle 1039±128 mm^3", "experimental": "Animal Studies. Nude mice (Charles River, Wilminton, Mass., USA) were maintained in accordance with Institutional Animal Care and Use Committee (IAUCUC) procedures and guidelines. A549 cells were harvested and resuspended in PBS, and then injected s.c. into the right and left flanks (10×10^6 cells per flank) of 8-week old female nude mice as reported previously (Sun 99). When tumors reached about 100-200 mm^3, animals were dosed intraperitoneally i.p. or orally by gavage with 0.1 mL solution once daily. […] The tumor volumes were determined by measuring the length (l) and the width (w) and calculating the volume (V=lw^2/2) as described previously (Sun 99). Statistical significance between control and treated animals were evaluated using Student's t-test."}, "[2]": {"test_system": "LNCaP prostate cell line", "test": "BrdU proliferation assay, LNCaP", "type": "cell-based", "experimental": "(§1) Proliferation assays. Bromodeoxyuridine (BrdU) labeling kits were obtained from Roche Biochemicals (Indianapolis, Ind.). Cells were plated in poly-D-lysine coated chamber slides at a density of 10,000 cells per well and rendered quiescent by serum starvation for 24 hours. Cells were then re-stimulated with serum in the presence or absence of the indicated drugs for 18 h. S-phase cells were visualized by microscopy and quantitated by counting 3 fields of 100 in quadruplicate.\nProstate cell lines LNCaP and PC3 both contain mutations in K-Ras and PTEN genes."}, "[3]": {"test_system": "MDA-MB-231 cells", "test": "BrdU proliferation assay, MDA-MB-231", "type": "cell-based, human", "experimental": "as §1\nThe metastatic human breast cancer cell line MDA-MB-231 harbors a K-Ras mutation and overexpresses EGFR."}, "[4]": {"test_system": "A549 cells stably expressing sh6", "test": "BrdU incorporation, A549 Rb shRNA sh6", "type": "cell-based, human", "conditions": "20 μM, Rb knock down", "experimental": "as §1\nTo further confirm that 3a requires a functional Rb to inhibit tumor cell proliferation, A549 cells (human epithelial lung carcinoma) were stably transfected with two different shRNA constructs (sh6 and sh8) to knock down Rb expression."}, "[5]": {"test_system": "cyclin D", "test": "Western/IP-western, cyclin D level and association with Rb", "type": "cell-based, human", "conditions": "IP-western", "text": "(§2) Lysate preparation, pmmunoprecipitation, and pestern plotting."}, "[6]": {"test_system": "A549 cells infected with Ad-E2F1", "test": "BrdU incorporation, A549 infected with Ad-E2F1", "type": "cell-based, human", "conditions": "20 μM of 3a for 36 h", "experimental": "as §1\nTo this end, A549 cells were infected with Ad-E2F1 or Ad-cyclin D, in the presence of 20 μM of 3a for 36 h. Ad-GFP infected cells were used as a control."}, "[7]": {"target": "T1, Rb binding to E2F1 (Homo sapiens, UniProt P06400+Q01094)", "T1 construct": "endogenous in cells; host or cells: A549", "T1 sequence (P06400 whole entry)": "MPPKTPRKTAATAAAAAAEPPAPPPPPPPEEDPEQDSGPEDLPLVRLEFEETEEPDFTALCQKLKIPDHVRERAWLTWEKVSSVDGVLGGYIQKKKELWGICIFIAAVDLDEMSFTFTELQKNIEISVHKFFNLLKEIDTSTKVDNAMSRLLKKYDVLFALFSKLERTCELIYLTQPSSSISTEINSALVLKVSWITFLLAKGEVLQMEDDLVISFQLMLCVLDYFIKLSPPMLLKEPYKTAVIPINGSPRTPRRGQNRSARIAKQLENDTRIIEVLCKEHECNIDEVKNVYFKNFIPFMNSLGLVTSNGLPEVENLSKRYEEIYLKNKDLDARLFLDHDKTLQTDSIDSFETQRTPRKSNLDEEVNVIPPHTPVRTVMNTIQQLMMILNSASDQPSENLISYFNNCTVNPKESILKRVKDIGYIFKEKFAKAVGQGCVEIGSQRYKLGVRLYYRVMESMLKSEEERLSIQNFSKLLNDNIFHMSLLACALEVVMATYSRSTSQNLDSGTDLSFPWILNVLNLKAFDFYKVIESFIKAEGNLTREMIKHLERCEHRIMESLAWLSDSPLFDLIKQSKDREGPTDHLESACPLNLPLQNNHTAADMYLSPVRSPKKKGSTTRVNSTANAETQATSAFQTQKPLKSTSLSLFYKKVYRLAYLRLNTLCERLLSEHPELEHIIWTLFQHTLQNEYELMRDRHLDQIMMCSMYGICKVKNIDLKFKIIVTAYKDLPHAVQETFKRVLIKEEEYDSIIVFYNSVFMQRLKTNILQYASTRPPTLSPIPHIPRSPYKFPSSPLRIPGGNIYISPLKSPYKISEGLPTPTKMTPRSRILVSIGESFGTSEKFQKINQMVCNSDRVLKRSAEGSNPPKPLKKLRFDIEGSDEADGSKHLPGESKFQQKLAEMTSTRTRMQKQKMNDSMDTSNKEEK", "T1 sequence (Q01094 whole entry)": "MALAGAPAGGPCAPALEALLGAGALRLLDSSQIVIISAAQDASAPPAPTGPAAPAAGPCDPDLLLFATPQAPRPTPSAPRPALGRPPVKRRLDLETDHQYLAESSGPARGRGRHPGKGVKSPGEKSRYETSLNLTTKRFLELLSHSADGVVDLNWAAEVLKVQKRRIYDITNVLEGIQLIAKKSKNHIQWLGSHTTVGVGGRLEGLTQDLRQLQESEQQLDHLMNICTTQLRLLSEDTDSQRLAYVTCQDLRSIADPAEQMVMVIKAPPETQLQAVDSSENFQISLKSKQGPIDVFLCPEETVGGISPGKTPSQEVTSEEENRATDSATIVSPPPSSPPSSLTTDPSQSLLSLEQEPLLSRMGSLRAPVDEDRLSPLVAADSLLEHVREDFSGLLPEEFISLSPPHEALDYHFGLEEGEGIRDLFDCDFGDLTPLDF", "test": "IP-western, A-549 cells, Rb-E2F1", "type": "cell-based", "text": "as §2"}, "[8]": {"target": "T2, Rb/E2F1 interaction in tumor xenografts (Homo sapiens, UniProt P06400+Q01094)", "T2 construct": "from tissue; host or cells: A549 xenograft tumors from nude mice", "T2 sequence (P06400 whole entry)": "as the sequence (P06400 whole entry) above", "T2 sequence (Q01094 whole entry)": "as the sequence (Q01094 whole entry) above", "test": "IP-Western of tumor lysates, Rb/E2F1", "type": "in vivo, nude mice", "conditions": "both doses"}, "[9]": {"test_system": "cdc6, cdc25A and TS promoters", "test": "Chromatin immunoprecipitation (ChIP) assay, A549 cells", "type": "cell-based, human", "conditions": "20 μM", "experimental": "Chromatin immunoprecipitation (ChIP) assay. A549 cells were rendered quiescent by serum starvation and re-stimulated with serum for 2h or 16h in the presence or absence of RRD 251 at 20μM. Cells were cross-linked with 1% formaldehyde for 10 minutes at room temperature. Subsequently, the cells were harvested and lysates were prepared. Immunoprecipitations were analyzed for the presence of E2F1, Rb, Raf-1, Brg1, HP1, and HDAC1 by PCR as previously described (Dasgupta 2004). Rabbit anti-mouse secondary antibody was used as the control for all reactions. The sequences of the PCR primers used in the PCRs were as follows: Cdc6 promoter (forward primer), 5′- […]-3′ (SEQ ID NO:1); and Cdc6 promoter (reverse primer), 5′-[…]-3′ (SEQ ID NO:2). TS promoter (forward primer), and 5′-GAC GGA GGC AGG CCA AGT G-3′ SEQ ID NO:3) TS promoter (reverse primer). The cdc25A and c-fos primers are described in (Dasgupta, 2004).\nSince serum is known to stimulate the binding of Raf-1 to Rb and leads to the dissociation of the co-repressor Brg-1 from E2F-responsive proliferative promoters like cdc6, cdc25 and TS promoters, it was hypothesized that 3a may interfere with this process. […] Binding of E2F1, HDAC1 and HP1 was not affected."}, "[10]": {"test_system": "Human aortic endothelial cells (HAECs)", "test": "Matrigel angiogenic tubule formation", "type": "cell-based", "conditions": "20 μM", "experimental": "Matrigel assays. […] A total of 100 μl of thawed Matrigel was added to 96-well tissue culture plates, followed by incubation at 37° C. for 60 minutes to allow polymerization. […] Capillary tube formation assessed by using a Leica DMIL phase contrast microscope.\nAn experiment was performed to determine whether angiogenic tubule formation could be inhibited by the disclosed compounds."}, "[11]": {"test_system": "Rb phosphorylation (serines 807 and 811)", "test": "Western blot of Rb phosphorylation, A549 cells", "type": "cell-based, human", "conditions": "cells treated 18 hours, western blotting", "text": "as §2"}, "[12]": {"test_system": "H1650 cells", "test": "Soft agar assay, H1650", "type": "cell-based", "experimental": "Soft Agar Assay. Soft agar assays were done in triplicate in 12-well plates (Corning, Corning N.Y.). First, the bottom layer of agar (0.6%) was allowed to solidify at room temperature. Next the top layer of agar was (0.3%) was mixed with 5,000 cells per well and the indicated drug. The drugs were added twice weekly in complete media to the agar wells. Colonies were quantified by staining with MTT (3-(4,5-Dimethylthiazol-2-yl)-2,5-diphenyltetrazolium bromide) 1 mg/mL for 1 hour at 37° C.\nExperiments were also carried out to examine the effect of 3a in inhibiting the adherence-independent growth of cancer cells in soft agar."}, "[13]": {"test_system": "Aspc1, PANC1, and CAPAN2 pancreatic cancer cells", "test": "BrdU incorporation, S-phase entry, pancreatic cancer cells", "type": "cell-based", "conditions": "range over three pancreatic cell lines", "experimental": "as §1"}, "[14]": {"test_system": "cyclin D kinase activity", "test": "In vitro kinase assay, cyclin D", "type": "biochemical", "experimental": "In vitro kinase assay. The kinase reaction for Raf-1 was carried out with 100 nanograms (ng) of Raf-1 (Upstate Signaling, Charlottesville, Va.), 0.5 μg of full-length Rb protein (QED Bioscience, San Diego, Calif.) as the substrate, 10 μM ATP, 10 μCi of [γ-^32P] ATP in the kinase assay buffer in the presence or absence of the drugs at 30° C. for 30 minutes. Cyclin D and E kinase assays are described in (Dasgupta 2004)."}, "[15]": {"test_system": "Saos-2 cells", "test": "BrdU incorporation, S-phase entry, Saos-2", "type": "cell-based", "conditions": "20 μM, 18 hours, Rb null", "experimental": "as §1\nGiven the selectivity of 3a described in FIGS. 1 and 2 above for disrupting the Rb:Raf-1 interaction, it was examined if 3a can inhibit the proliferation of cells and whether such an inhibition required a functional Rb gene."}}, "note": "Entries after “also recorded” stand apart in the source; their conditions may differ.", "data": [{"molecule": "Cl.N=C(N)SCc1ccc(Cl)cc1Cl", "note": "[Compound 3a]", "values": [{"measurement": "A549 tumor growth in words, 3a", "setting": "[1]; 50 mpk/day i.p. or 150 mpk/day oral", "value": "completely inhibit tumor growth; also recorded: did not grow"}, {"measurement": "tumor size, A549 xenograft", "setting": "[1]; 50 mpk/day i.p.", "value": "144±20", "unit": "mm^3"}, {"measurement": "tumor size, A549 xenograft", "setting": "[1]; 150 mpk/day oral", "value": "148±32", "unit": "mm^3"}, {"measurement": "inhibition of proliferation, LNCaP", "setting": "[2]", "value": 86, "unit": "%"}, {"measurement": "inhibition of proliferation, MDA-MB-231", "setting": "[3]", "value": 56, "unit": "%"}, {"measurement": "S-phase entry (BrdU), A549 sh6", "setting": "[4]", "value": "does not inhibit the proliferation; also recorded: no effect"}, {"measurement": "level of cyclin D and its association with Rb", "setting": "[5]", "value": "tended to reduce the levels of cyclin D as well as its association with Rb; also recorded: reduced"}, {"measurement": "rescue of anti-proliferative activity by E2F1 over expression", "setting": "[6]", "value": "sufficient to overcome; also recorded: efficiently overcame the anti-proliferative activity"}, {"measurement": "Rb binding to E2F1", "setting": "[7]", "value": "not affected"}, {"measurement": "Rb/E2F1 interaction in tumor lysates", "setting": "[8]", "value": "without inhibiting Rb-E2F1 interaction; also recorded: not Rb/E2F1 interaction"}, {"measurement": "Raf-1 binding to E2F-responsive promoters upon serum stimulation", "setting": "[9]", "value": "causes the dissociation of Raf-1; also recorded: disrupted"}, {"measurement": "binding of E2F1, HDAC1 and HP1 to promoters", "setting": "[9]", "value": "not affected"}, {"measurement": "dissociation of co-repressor Brg-1 from promoters", "setting": "[9]", "value": "retention of Brg1; also recorded: inhibited"}, {"measurement": "angiogenic tubule formation in matrigel", "setting": "[10]", "value": "inhibit angiogenic tubule formation; also recorded: significantly inhibited the angiogenic tubule formation"}, {"measurement": "Rb phosphorylation", "setting": "[11]", "value": "reduced Rb phosphorylation significantly; also recorded: marked reduction in Rb phosphorylation"}, {"measurement": "adherence-independent growth in soft agar, H1650", "setting": "[12]", "value": "significantly inhibited the growth"}, {"measurement": "inhibition of S-phase entry, Aspc1, PANC1, CAPAN2", "setting": "[13]", "value": "50-65%"}, {"measurement": "cyclin D kinase activity", "setting": "[14]", "value": "does not inhibit; also recorded: did not affect the kinase activities"}, {"measurement": "S-phase entry (BrdU), Saos-2", "setting": "[15]", "value": "little effect"}]}]}
